The test system of one assay is A549. The assay can be described thus: Cell-based assay, anti-proliferative activity (Cell Counting Kit-8, 72 hours). To be noted: Homo sapiens, read-out: IC50 (μM) A549. In outline: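 Cells were seeded in 96-well plates and exposed to candidate inhibitors. Cellular growth was then determined with the colorimetric kit, and IC50 values were calculated from the growth data.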
(Tetrazolium assays rely on reduction of a dye to a coloured formazan, in cell work by metabolically active cells.)

For another assay, the system named is HFL1. The assay is described as above. To be noted: Homo sapiens, read-out: IC50 (μM) HFL1. The gist of the method:
(§1)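 IC50 values reflect cell growth measured by Cell Counting Kit-8 following 72 hours of inhibitor exposure across a twofold dilution range up to 100 micro-M.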

Another assay has as its system HCT-116. The assay is described as above. To be noted: Homo sapiens, read-out: IC50 (μM) HCT-116. In outline: as §1
A further assay has as its system CCD-18Co. Described as above. Conditions: Homo sapiens, read-out: IC50 (μM) CCD-18Co. The gist of the method: as §1
The next assay concerns the target SUV39H2 (Homo sapiens (Human), UniProt Q9H5I1). Conditions: read-out: IC50 (μM) Suv 39H2 assay.
[1] abbreviates: A549 cells, Cell Counting Kit-8, 72 hours.
Where [2] appears, read: HFL1 cells, Cell Counting Kit-8, 72 hours.
Where [3] appears, read: HCT-116 cells, Cell Counting Kit-8, 72 hours.
Setting [4] is: CCD-18Co cells, Cell Counting Kit-8, 72 hours.

The structures appear in SMILES notation. Where a name gives a salt, the structure may show the parent alone. Read-outs that look alike come from different tables or passages of the source.

Sequence of SUV39H2 (Q9H5I1 whole entry): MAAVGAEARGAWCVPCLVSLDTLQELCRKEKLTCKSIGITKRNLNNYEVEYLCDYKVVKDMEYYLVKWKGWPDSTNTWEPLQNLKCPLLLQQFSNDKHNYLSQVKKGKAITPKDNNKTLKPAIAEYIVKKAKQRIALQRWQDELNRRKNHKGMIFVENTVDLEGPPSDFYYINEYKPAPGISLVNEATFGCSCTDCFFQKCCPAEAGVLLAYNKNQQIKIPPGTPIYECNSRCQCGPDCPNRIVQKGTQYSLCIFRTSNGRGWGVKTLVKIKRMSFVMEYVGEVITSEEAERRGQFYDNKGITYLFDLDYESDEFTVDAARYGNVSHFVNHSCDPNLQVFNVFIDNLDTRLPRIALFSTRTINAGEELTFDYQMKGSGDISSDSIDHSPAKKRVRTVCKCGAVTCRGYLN

Usually IC50 stands for the concentration needed to halve the response being measured. `COC(=O)NCCNc1cn2cc(-c3cc(Cl)c(OC)cc3OC)nc2cc1OC` [Example 91, methyl (2-((2-(5-chloro-2,4-dimethoxyphenyl)-7-methoxyimidazo[1,2-a]-pyridin-6-yl)amino)ethyl)carbamate]: the IC50 in the assay with A549 (setting [1]) was 3.1 µM; with HFL1 (setting [2]) it was 2.9 µM; with HCT-116 (setting [3]) it was 2.2 µM; in the assay on CCD-18Co (setting [4]) it was 4.7 µM; at SUV39H2 (enzyme assay), 0.0263 µM.

As to `COc1cc(OC)c(-c2cn3ccc(N4CCOCC4)nc3n2)cc1Cl` [Example 79, 4-(2-(5-chloro-2,4-dimethoxyphenyl)imidazo[1,2-a]pyrimidin-7-yl)-morpholine hydrobromide], the IC50 with A549 (setting [1]) is 21 µM; with HFL1 (setting [2]), 15 µM; in the assay with HCT-116 (setting [3]), 21 µM; in the assay with CCD-18Co (setting [4]) it was 22 µM; on SUV39H2 (enzyme assay), 0.0344 µM.

`COc1cc(OCCN(C)C)c(-c2cn3ccc(N4CCOCC4)cc3n2)cc1Cl` [Example 98, 2-(4-chloro-5-methoxy-2-(7-morpholinoimidazo[1,2-a]pyridin-2-yl)-phenoxy)-N,N-dimethylethanamine]: the IC50 in the assay with A549 (setting [1]) worked out at 22 µM; in the assay with HFL1 (setting [2]), 15 µM; in the assay on HCT-116 (setting [3]), 13 µM; in the assay with CCD-18Co (setting [4]), 9.9 µM; at SUV39H2 (enzyme assay), 0.0372 µM.

Consider `COc1cc(OC)c(-c2cn3cc(N4CCNCC4)ccc3n2)cc1Cl` [Example 115, 2-(5-chloro-2,4-dimethoxyphenyl)-6-(piperazin-1-yl)imidazo[1,2-a]-pyridine hydrochloride], for which the IC50 was determined as 9.4 µM with A549 (A549, 72 h); 8.4 µM in the assay on HFL1 (HFL1, 72 h); 7.7 µM with HCT-116 (HCT-116, 72 h); 13 µM with CCD-18Co (CCD-18Co, 72 h); 0.0179 µM at SUV39H2.

For the compound `COc1cc(OCC2CC2)c(-c2cn3ccc(N4CCOCC4)cc3n2)cc1Cl` [Example 84, 4-(2-(5-chloro-2-(cyclopropylmethoxy)-4-methoxyphenyl)imidazo-[1,2-a]pyridin-7-yl)morpholine], the IC50 was determined as 4.6 µM in the assay on A549 (setting [1]); 3.2 µM in the assay with HFL1 (setting [2]); 3.8 µM with HCT-116 (setting [3]); 4.3 µM with CCD-18Co (setting [4]); 0.0138 µM at SUV39H2 (enzyme assay).

Consider `COc1cc(OC)c(-c2cn3ccc(N4CCC(N(C)C)CC4)cc3n2)cc1Cl` [Example 92, 1-(2-(5-chloro-2,4-dimethoxyphenyl)imidazo[1,2-a]pyridin-7-yl)-N,N-dimethylpiperidin-4-amine], for which the IC50 with A549 (setting [1]) came out at 6 µM; with HFL1 (setting [2]), 5.5 µM; with HCT-116 (setting [3]) it was 7 µM; with CCD-18Co (setting [4]), 8.8 µM; on SUV39H2 (enzyme assay) it was 0.0135 µM.

On to `COc1cc(OC)c(-c2cn3ccc(C4=CCNCC4)cc3n2)cc1Cl` [Example 52, 2-(5-chloro-2,4-dimethoxyphenyl)-7-(1,2,3,6-tetrahydropyridin-4-yl)imidazo[1,2-a]pyridine], for which the IC50 in the assay on A549 (setting [1]) worked out at 1.5 µM; in the assay on HFL1 (setting [2]) it was 1.6 µM; with HCT-116 (setting [3]) it was 1.4 µM; in the assay with CCD-18Co (setting [4]) it was 1.3 µM; on SUV39H2 (enzyme assay), 0.0616 µM.

As to `COc1cc(OC)c(-c2cn3ccc(N4CCN(CCNC(=O)OC(C)(C)C)CC4)cc3n2)cc1Cl` [Example 28, tert-butyl (2-(4-(2-(5-chloro-2,4-dimethoxyphenyl)imidazo[1,2-a]pyridin-7-yl)piperazin-1-yl)ethyl)carbamate dihydrochloride], the IC50 with A549 (setting [1]) came out at 3.6 µM; in the assay on HFL1 (setting [2]), 3.4 µM; in the assay with HCT-116 (setting [3]), 2.8 µM; in the assay with CCD-18Co (setting [4]), 4 µM; on SUV39H2 (enzyme assay), 0.021 µM.

`COc1cc(OC)c(-c2cn3ccc(N4CC[C@H](N)C4)nc3n2)cc1Cl` [Example 58, (S)-1-(2-(5-chloro-2,4-dimethoxyphenyl)imidazo[1,2-a]pyrimidin-7-yl)-pyrrolidin-3-amine hydrochloride]: the IC50 with A549 (A549, 72 h) worked out at 14 µM; in the assay on HFL1 (HFL1, 72 h), 6.2 µM; in the assay with HCT-116 (HCT-116, 72 h), 9.4 µM; in the assay on CCD-18Co (CCD-18Co, 72 h), 13 µM; at SUV39H2 it was 0.0296 µM.

With `COc1cc(OC)c(-c2cn3ccc(C4=CCN(CCC#N)CC4)cc3n2)cc1Cl` [Example 109, 3-(4-(2-(5-chloro-2,4-dimethoxyphenyl)imidazo[1,2-a]pyridin-7-yl)-5,6-dihydropyridin-1(2H)-yl)propanenitrile], the IC50 with A549 (setting [1]) worked out at 5.9 µM; in the assay on HFL1 (setting [2]) it was 1.8 µM; in the assay with HCT-116 (setting [3]) it was 5.1 µM; in the assay with CCD-18Co (setting [4]) it was 2.6 µM; on SUV39H2 (enzyme assay) it was 0.0417 µM.

On to `COCCCN1CC=C(c2ccn3cc(-c4cc(Cl)c(OC)cc4OC)nc3c2)CC1` [Example 116, 2-(5-Chloro-2,4-dimethoxyphenyl)-7-(1-(3-methoxypropyl)-1,2,3,6-tetrahydropyridin-4-yl)imidazo[1,2-a]pyridine], for which the IC50 with A549 (setting [1]) came out at 6.1 µM; in the assay on HFL1 (setting [2]) it was 6.6 µM; in the assay with HCT-116 (setting [3]), 7 µM; in the assay on CCD-18Co (setting [4]), 11 µM; at SUV39H2 (enzyme assay), 0.0738 µM.

As for `COc1cc(OC)c(-c2cn3ccc(N4CCC(N)C4)nc3n2)cc1Br` (stereo not shown) [Example 19, hydrochloride], the IC50 in the assay on A549 (A549, 72 h) is 11 µM; with HFL1 (HFL1, 72 h), 4.2 µM; in the assay with HCT-116 (HCT-116, 72 h), 7.9 µM; in the assay with CCD-18Co (CCD-18Co, 72 h), 16 µM; on SUV39H2, 0.0292 µM.

`COc1cc(OC)c(-c2cn3ccc(NCCNC(C)=O)cc3n2)cc1Cl` [Example 77, N-(2-((2-(5-chloro-2,4-dimethoxyphenyl)imidazo[1,2-a]pyridin-7-yl)amino)ethyl)acetamide]: the IC50 in the assay with A549 (setting [1]) came to 30 µM; with HFL1 (setting [2]) it was 15 µM; in the assay with HCT-116 (setting [3]) it was 21 µM; with CCD-18Co (setting [4]) it was 31 µM; at SUV39H2 (enzyme assay) it was 0.0101 µM.

As to `COc1cc(OC)c(-c2cn3ccc(N4CCCC4)cc3n2)cc1Br` [Example 1, 2-(5-bromo-2,4-dimethoxyphenyl)-7-(pyrrolidin-1-yl)imidazo[1,2-a]pyridine], the IC50 in the assay with A549 (A549, 72 h) amounted to 2.5 µM; with HFL1 (HFL1, 72 h), 1.6 µM; in the assay on HCT-116 (HCT-116, 72 h), 1.7 µM; in the assay on CCD-18Co (CCD-18Co, 72 h), 2.6 µM; at SUV39H2 (enzyme assay) it was 0.0182 µM.

`COc1cc(OC(C)C)c(-c2cn3ccc(N4CC[C@H](N)C4)cc3n2)cc1Br` [Example 59, (S)-1-(2-(5-bromo-2-isopropoxy-4-methoxyphenyl)imidazo[1,2-a]pyridin-7-yl)pyrrolidin-3-amine hydrochloride]: the IC50 was 3.4 µM with A549 (A549, 72 h); 1.8 µM in the assay on HFL1 (HFL1, 72 h); 2.6 µM in the assay on HCT-116 (HCT-116, 72 h); 3.7 µM in the assay on CCD-18Co (CCD-18Co, 72 h); 0.0112 µM at SUV39H2.

For the compound `COc1cc(OC)c(-c2cn3ccc(N4CCC(NC(=O)OC(C)(C)C)C4)nc3n2)cc1Br` (stereo not shown) [Example 13], the IC50 in the assay with A549 (setting [1]) worked out at 5.7 µM; with HFL1 (setting [2]) it was 3.7 µM; in the assay on HCT-116 (setting [3]), 6.6 µM; with CCD-18Co (setting [4]), 4.4 µM; at SUV39H2 (enzyme assay) it was 0.0219 µM.

Consider `COCCN1CCN(c2ccn3cc(-c4cc(Cl)c(OC)cc4OC)nc3c2)CC1` [Example 105, 2-(5-chloro-2,4-dimethoxyphenyl)-7-(4-(2-methoxyethyl)piperazin-1-yl)imidazo[1,2-a]pyridine], for which the IC50 in the assay with A549 (setting [1]) was 7.2 µM; with HFL1 (setting [2]), 8.3 µM; in the assay with HCT-116 (setting [3]) it was 7 µM; in the assay with CCD-18Co (setting [4]), 8.1 µM; on SUV39H2 (enzyme assay), 0.0111 µM.

The values are drawn from US10508109B2 (priority 2015, dated 2019).
